Reference: ChEMBL document CHEMBL1177693, “Antimalarials from nature” (Bioorg Med Chem, 2009)
Values after ≈ are worked out from the molar mass of the structure shown.

tested on: Plasmodium falciparum; experiment: Antimalarial activity against chloroquine-resistant Plasmodium falciparum Dd2; assay type: functional, organism-based; settings: not given

Row | SMILES | IC50
1 | COc1ccc(-c2cc(=O)oc3c(OC)c(OC)cc(OC)c23)cc1 | 3.6 µg/mL (≈ 10.5 µM)
2 | COc1ccc(-c2cc(=O)c3c(O)cc(O)cc3o2)cc1 [ACACETIN] | 12.6 µg/mL (≈ 44.3 µM)
3 | O=c1c(-c2ccc(O)cc2)coc2cc(O)cc(O)c12 [GENISTEIN] | 4.1 µg/mL (≈ 15.2 µM)
4 | COc1ccc(-c2coc3cc(O)ccc3c2=O)cc1O [CALYCOSIN] | 9.8 µg/mL (≈ 34.5 µM)
5 | C=C1C(=O)O[C@H]2[C@H]1[C@@H](OC(C)=O)CC(=C)[C@]1(O)CC=C(C)[C@H]21 | 10.8 µg/mL (≈ 35.5 µM)

target: T1, Enoyl-acyl-carrier protein reductase (Plasmodium falciparum, UniProt Q965D5); experiment: Inhibition of Plasmodium falciparum Fabl; settings: not given
T1 sequence (Q965D5 whole entry): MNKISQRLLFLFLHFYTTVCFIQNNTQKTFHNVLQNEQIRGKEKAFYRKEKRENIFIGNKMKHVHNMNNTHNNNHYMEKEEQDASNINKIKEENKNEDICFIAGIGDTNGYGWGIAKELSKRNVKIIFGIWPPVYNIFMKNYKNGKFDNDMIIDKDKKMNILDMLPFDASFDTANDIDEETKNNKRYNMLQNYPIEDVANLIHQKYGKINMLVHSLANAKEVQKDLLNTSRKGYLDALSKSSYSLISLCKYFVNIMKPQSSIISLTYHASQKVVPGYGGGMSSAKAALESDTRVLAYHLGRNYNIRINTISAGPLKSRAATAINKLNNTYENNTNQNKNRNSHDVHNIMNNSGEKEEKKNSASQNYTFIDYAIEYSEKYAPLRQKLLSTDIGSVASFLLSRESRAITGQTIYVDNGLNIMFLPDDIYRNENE

Row | SMILES | IC50
6 | O=c1cc(-c2ccc(O)c(O)c2)oc2cc(O[C@@H]3O[C@H](CO)[C@@H](O)[C@H](O)[C@H]3O)cc(O)c12 [GALUTEOLIN] | 22.3 µM
7 | OCC1=C[C@@H]2OCC[C@@H]2[C@@H]1CO | 588 µM

tested on: Plasmodium falciparum; experiment: Antimalarial activity against Plasmodium falciparum D6; assay type: functional, organism-based; settings: not given

Row | SMILES | IC50
8 | COc1cc(/C=C/C(=O)CC(=O)/C=C/c2ccc(O)c(OC)c2)ccc1O [CURCUMIN] | 3.5 µg/mL (≈ 9.5 µM)

tested on: Plasmodium falciparum; experiment: Antimalarial activity against Plasmodium falciparum NF54; assay type: functional, organism-based; settings: not given

Row | SMILES | IC50
9 | COc1c2c(c(O)c3c4c(c(C)cc13)[C@@H]1O[C@@]3(C(OC)OC)O[C@@H]1[C@@](O[C@H]1C[C@@H](O)[C@@](O)(C(C)=O)[C@H](C)O1)(O4)[C@@]31CO1)C(=O)[C@@H](O)C[C@@H]2O[C@H]1C[C@@](C)(O)[C@H](O)[C@H](C)O1 [TRIOXACARCIN D] | 1.7 ng/mL
10 | COc1c2c(c(O)c3c4c(c(C)cc13)[C@@H]1O[C@@]3(C(OC)OC)O[C@@H]1[C@@](O[C@H]1C[C@@H](O)[C@@](O)(C(C)=O)[C@H](C)O1)(O4)[C@@]31CO1)C(=O)[C@@H](O)C[C@@H]2O[C@H]1C[C@@](C)(O)[C@H](OC(C)=O)[C@H](C)O1 [TRIOXACARCIN A] | 1.7 ng/mL
11 | C[C@@H]1O[C@@H](Oc2cc3oc(-c4ccc(O)c(O)c4)cc(=O)c3c(O)c2O)[C@H](O)[C@H](O)[C@H]1O | 3.32 µM

tested on: Plasmodium falciparum; experiment: Antimalarial activity against chloroquine-sensitive Plasmodium falciparum PoW; assay type: functional, organism-based; settings: not given

Row | SMILES | IC50
12 | COc1ccc(-c2cc(=O)c3c(O)cc(O)cc3o2)cc1 [ACACETIN] | 5.5 µg/mL (≈ 19.3 µM)
13 | O=c1c(-c2ccc(O)cc2)coc2cc(O)cc(O)c12 [GENISTEIN] | 2 µg/mL (≈ 7.4 µM)
14 | COc1ccc(-c2coc3cc(O)ccc3c2=O)cc1O [CALYCOSIN] | 4.2 µg/mL (≈ 14.8 µM)

tested on: Plasmodium vivax; experiment: Antimalarial activity against Plasmodium vivax infected in human HepG2-A16 cells assessed as reduction of trophozoites level; assay type: functional; parameters: scale not given: the % may be the effect or the level left; settings: not given

Row | SMILES | Activity
15 | CC(CCC1(O)C[C@@H]2C[C@H]3[C@@H]4CCC5=CC(=O)CC[C@]5(C)[C@H]4CC[C@]3(C)[C@H]2[C@@H]1C)CO[C@@H]1O[C@H](CO)[C@@H](O)[C@H](O)[C@H]1O (stereo not given in full) | 39%
16 | CC(CO)CCC(=O)[C@@H](C)[C@H]1[C@H](O)C[C@H]2[C@@H]3CCC4=CC(=O)CC[C@]4(C)[C@H]3CC[C@]12C (stereo not given in full) | 47%

tested on: Plasmodium falciparum; experiment: Antimalarial activity against chloroquine-resistant Plasmodium falciparum FCB1; assay type: functional, organism-based; settings: FcB1/Columbia

Row | SMILES | IC50
17 | O=C(Oc1cc(O)cc2c1C[C@H](O)[C@@H](c1ccc(O)c(O)c1)O2)c1cc(O)c(O)c(O)c1 | 1200 nM
18 | O=C(O[C@H]1Cc2c(O)cc(O)cc2O[C@@H]1c1ccc(O)c(O)c1)c1cc(O)c(O)c(O)c1 [CATECHIN GALLATE] | 1000 nM

tested on: Plasmodium falciparum; experiment: Antimalarial activity against chloroquine-sensitive Plasmodium falciparum D6; assay type: functional, organism-based; settings: not given

Row | SMILES | IC50
19 | COc1ccc(C[C@H]2NC[C@H](O)[C@H]2OC(C)=O)cc1 [ANISOMYCIN] | 4.6 µM
20 | O=C(O)[C@@H]1[C@H](C(=O)O)[C@H]2CC[C@@H]1O2 [ENDOTHALL] | 7.8 µM
21 | C/C=C/C/C=C/CCC(=O)[C@H]1O[C@H]1C(N)=O [CERULENIN] | 10.1 µM

tested on: Plasmodium berghei; experiment: Antiplasmodial activity against chloroquine-sensitive Plasmodium berghei; assay type: functional, organism-based; settings: not given

Row | SMILES | ED50 | IC50
22 | COC(C)(C)[C@@H]1C=C2C(=O)[C@H]3O[C@H]3C3C=CC(C2C(=O)/C1=C/CO)[C@H]3O (stereo not given in full) | 5.2 mg/kg | 2.1 nM

tested on: Plasmodium falciparum; experiment: Antimalarial activity against Plasmodium falciparum; assay type: functional, organism-based; settings: Plasmodium falciparum

Row | SMILES | IC50
23 | CC1(C)C(=O)CC[C@]2(C)[C@H]3CC(O)[C@@H]4[C@@]5(C)CC[C@](O)(C(C)(C)O)[C@H]5[C@@H](O[C@H]5OC[C@@H](O)[C@@H](O)[C@@H]5O)C[C@@]4(C)[C@]3(C)CC[C@@H]12 (mixture of isomers) [GLINOSIDE A] | 42.3 µg/mL
24 | COc1cc2c(cc1O)CCN(C)[C@H]2Cc1ccc(Oc2c(O)c(OC)cc3c2C[C@@H]2c4c(cc(OC)c(OC)c4-3)CCN2C)cc1 | 0.0112 µg/mL
25 | C=C1[C@@H](O)[C@@]2(O)OC[C@]34[C@H]2[C@@]2(C)[C@H](O)C(=O)C=C(C)[C@@H]2C[C@H]3OC(=O)[C@H](O)[C@@]14O [EURYCOMANONE] | 0.04 µg/mL
26 | C/C1=C\[C@H]2O[C@](C)(CC[C@@H]2[C@@]2(C)CO2)[C@@H](O)CC/C(C)=C/CC1 | 15 µg/mL
27 | C=C1C(=O)O[C@@H]2C[C@@H](C)/C=C\C(=O)[C@@](C)(O)[C@H](OC(C)=O)[C@@H](OC(=O)CC(C)C)[C@@H]12 [NEUROLENIN B] | 620 nM
28 | O=C1OC(O)C(Br)=C1Br (stereo not given) [MUCOBROMIC ACID] | 0.359 µg/mL
29 | COc1cc2c3cc1Oc1c(OC)c(OC)cc4c1[C@H](Cc1ccc(OC)c(c1)-c1cc(ccc1O)C[C@H]3N(C)CC2)N(C)CC4 | 1140 nM
30 | C=C(C)C(=O)O[C@H]1C[C@H](C)C2=CC(=O)[C@](C)(/C=C3/OC(=O)C(COC(C)=O)=C31)O2 | 1.8 µg/mL

tested on: Plasmodium falciparum; experiment: Antimalarial activity against Plasmodium falciparum K1; assay type: functional, organism-based; settings: not given

Row | SMILES | IC50
31 | COc1c2c(c(O)c3c4c(c(C)cc13)[C@@H]1O[C@@]3(C(OC)OC)O[C@@H]1[C@@](O[C@H]1C[C@@H](O)[C@@](O)(C(C)=O)[C@H](C)O1)(O4)[C@@]31CO1)C(=O)[C@@H](O)C[C@@H]2O[C@H]1C[C@@](C)(O)[C@H](O)[C@H](C)O1 [TRIOXACARCIN D] | 1.5 ng/mL
32 | COc1c2c(c(O)c3c4c(c(C)cc13)[C@@H]1O[C@@]3(C(OC)OC)O[C@@H]1[C@@](O[C@H]1C[C@@H](O)[C@@](O)(C(C)=O)[C@H](C)O1)(O4)[C@@]31CO1)C(=O)[C@@H](O)C[C@@H]2O[C@H]1C[C@@](C)(O)[C@H](OC(C)=O)[C@H](C)O1 [TRIOXACARCIN A] | 1.5 ng/mL
33 | C[C@@H]1O[C@@H](Oc2cc3oc(-c4ccc(O)c(O)c4)cc(=O)c3c(O)c2O)[C@H](O)[C@H](O)[C@H]1O | 2130 nM

tested on: Plasmodium falciparum; experiment: Antimalarial activity against Plasmodium falciparum W2; assay type: functional, organism-based; settings: not given

Row | SMILES | IC50
34 | COc1cc(/C=C/C(=O)CC(=O)/C=C/c2ccc(O)c(OC)c2)ccc1O [CURCUMIN] | 4.2 µg/mL (≈ 11.4 µM)
